Data reported in patent US11944627B2, “Methods for treating hematological malignancies and Ewing's sarcoma” (KURA ONCOLOGY, INC., priority 2017, dated 2024).

Each compound was assayed on LXFE 2734 cells (assay: Serial bleed FACS analysis and survival study in LXFE 2734 mouse model). Details: LXFE 2734 model, compared to vehicle; FIG. 11.
Source text: Human leukemia cells were detected by FACS biweekly starting from week 2 post-cell inoculation.

In the case of `CC(C)(C)c1cc(NC(=O)Nc2ccc(-c3cn4c(n3)sc3cc(OCCN5CCOCC5)ccc34)cc2)no1` [quizartinib], the overall survival is reported as “prolonged survival”.

Same assay, conditions: LXFE 2734 model, quizartinib ~3 mg/kg qd

For `CC(C)(C)c1cc(NC(=O)Nc2ccc(-c3cn4c(n3)sc3cc(OCCN5CCOCC5)ccc34)cc2)no1` [quizartinib], the surviving animals was “no quizartinib treated animals surviving after 77 days”.

Same assay, conditions: LXFE 2734 model; Compound A ~150 mg/kg p.o. qd, quizartinib ~3 mg/kg qd; FIG. 10

With `CC(C)(C)c1cc(NC(=O)Nc2ccc(-c3cn4c(n3)sc3cc(OCCN5CCOCC5)ccc34)cc2)no1` [quizartinib] the “leukemic progression (CD45+/CD33+ blasts, FACS)” value was “evidence of leukemia relapse”.

These compounds were tested on AM7577 cells (assay: Serial bleed FACS analysis and survival study in AM7577 mouse model (Example 30)). Details: Compound A ~100 or ~150 mg/kg, quizartinib ~3 mg/kg, combination ~100 + ~2 mg/kg, p.o. qd, FIG. 8.

For `CC(C)(C)c1cc(NC(=O)Nc2ccc(-c3cn4c(n3)sc3cc(OCCN5CCOCC5)ccc34)cc2)no1` [quizartinib], the “leukemic progression (CD45+/CD38+ blasts, serial bleed FACS)” value was “evidence of leukemia breakout after 63 days”.

Same assay, conditions: compared to vehicle, FIG. 9A

`CC(C)(C)c1cc(NC(=O)Nc2ccc(-c3cn4c(n3)sc3cc(OCCN5CCOCC5)ccc34)cc2)no1` [quizartinib] was tested, and the overall survival was “prolonged survival”.

Same assay, conditions: quizartinib only treatment

For `CC(C)(C)c1cc(NC(=O)Nc2ccc(-c3cn4c(n3)sc3cc(OCCN5CCOCC5)ccc34)cc2)no1` [quizartinib], the surviving animals was “no surviving animals after 84 days”.

What follows are compounds tested on MLL-AF9 BMC (assay: Cell proliferation assay, MLL-AF9 bone marrow cells). Details: Mus musculus.
Type: cell-based, murine
Method: The ability of a compound of the present disclosure to inhibit the growth of selected cells was tested using a cell viability assay, such as the Promega CellTiter-Glo® Luminescent Cell Viability Assay (Promega Technical Bulletin, 2015, “CellTiter-Glo® Luminescent Cell Viability Assay”: 1-15, herein incorporated by reference in its entirety) or MTT cell proliferation assay (ATCC® 30-1010K) or cell counting. Compounds of the present disclosure can be tested in both acute myeloid leukemia cell lines or Ewing's sarcoma cell lines and control cell lines without the genetic abnormality or mutation being investigated (e.g., K562, REH, U937, KG-1, and/or HL-60). Selected cells can include, but are not limited to, cells such as human leukemia cell, acute myeloid leukemia cell, Ewing's sarcoma cell (e.g., SK-NEP-1, EW5, EW8, TC-71, TC-106, CHLA258, CHLA-9, CHLA-10, SK-ES-1, Hs 822.T, A-673, A-4573, Hs 863.T, RD-ES, CHLA-25, CHLA-32, CHLA-99, COG-E-352, TC-32, SK-N-MC), VCaP, LNCaP, 22RV1, DU145, LNCaP-AR, MV4;11, KOPN-8, ML-2, MOLM-13, RS4;11, SEM, bone marrow cells (BMCs), myeloblast cell, lymphoblast cell, NUP98 gene fusion cell (e.g., NUP98-PHF23 cell), NUP98-PHF23 (NP23) myeloblast cell (e.g., 961C), NUP98-PHF23 (NP23) lymphoblast cell (e.g., 748T, 106A), cell with an NPM1 mutation (e.g., OCI-AML3), cell without an NPM1 mutation, cell with a DNMT3A mutation (e.g., OCI-AML3, OCI-AML2, SET2), cell without a DNMT3A mutation, cell with a FLT3 mutation, cell without a FLT3 mutation, cell with an IDH1 mutation, cell without an IDH1 mutation, cell with an IDH2 mutation, cell without an IDH2 mutation, cell with a mixed lineage leukemia (MLL) gene amplification (e.g., UoC-M1, 2L1), cell without a mixed lineage leukemia (MLL) gene amplification, MLL-AF9, MLL-AF4, MLL-ENL, HM-2, E2A-HLF, REH, U937, HL-60, NB4, K562, KG-1, and OCI-AML2 cells. Cells were plated at relevant concentrations, for example about 1×10^5-2×10^5 cells per well in a 96-well plate. A compound of the present disclosure was added at a concentration up to about 2 μM with seven or eight, 2-fold serial dilutions for each compound. Cells were incubated at 37° C. for a period of time, for example, 72 hours, then cells in the control wells were counted. Media was changed to restore viable cell numbers to the original concentration, and compounds were re-supplied. Proliferation was measured about 72 hours later or about 96 hours later using Promega CellTiter-Glo® reagents or MTT reagents, as per kit instructions.

First: Cc1c(CN2CCC(Nc3ncnc4sc(CC(F)(F)F)cc34)CC2)ccc2c1cc(C#N)n2C[C@@H](C)N1CCN(S(C)(=O)=O)CC1 [Compound I-9]
Second: Cc1c(CN2CCC(Nc3ncnc4sc(CC(F)(F)F)cc34)CC2)ccc2c1cc(C#N)n2C[C@H](C)N1CCN(S(C)(=O)=O)CC1 [Compound I-10]
The GI50 of the first is higher: 250 to 1000 nM for the first, 10 to 50 nM for the second.

Compared with `Cc1c(CN2CCC(Nc3ncnc4sc(CC(F)(F)F)cc34)CC2)ccc2c1cc(C#N)n2CC(C)N1CCN(S(C)(=O)=O)C(C(N)=O)C1` (stereo not shown) [Compound I-80], `Cc1c(CN2CCC(Nc3ncnc4sc(CC(F)(F)F)cc34)CC2)ccc2c1cc(C#N)n2C[C@H](C)N1CCN(S(C)(=O)=O)[C@H](C(N)=O)C1` [Compound I-163] is lower in GI50: 10 to 50 nM for the first, < 10 nM for the second.

`CNS(=O)(=O)N1CCN([C@@H](C)Cn2c(C#N)cc3c(C)c(CN4CCC(Nc5nc(N)nc6sc(CC(F)(F)F)cc56)CC4)ccc32)CC1` [Compound I-132] and `Cc1c(CN2CCC(Nc3nc(N)nc4sc(CC(F)(F)F)cc34)CC2)ccc2c1cc(C#N)n2C[C@H](C)N1CCN(S(C)(=O)=O)CC1` [Compound I-135] cannot be ordered by GI50: < 10 nM for the first, < 10 nM for the second.

`Cc1nc(NC2CCN(Cc3ccc4c(cc(C#N)n4C[C@H](C)N4CCN(S(C)(=O)=O)CC4)c3C)CC2)c2cc(CC(F)(F)F)sc2n1` [Compound I-138] and `CNS(=O)(=O)N1CCN([C@@H](C)Cn2c(C#N)cc3c(C)c(CN4CCC(Nc5nc(C)nc6sc(CC(F)(F)F)cc56)CC4)ccc32)CC1` [Compound I-139] fall in the same range of GI50: 10 to 50 nM for the first, 10 to 50 nM for the second.

First: CNc1nc(NC2CCN(Cc3ccc4c(cc(C#N)n4C[C@H](C)N4CCN(S(C)(=O)=O)CC4)c3C)CC2)c2cc(CC(F)(F)F)sc2n1 [Compound I-151]
Second: CCNc1nc(NC2CCN(Cc3ccc4c(cc(C#N)n4C[C@H](C)N4CCN(S(C)(=O)=O)CC4)c3C)CC2)c2cc(CC(F)(F)F)sc2n1 [Compound I-174]
The GI50 of the first is lower: < 10 nM for the first, 10 to 50 nM for the second.

`Cc1nc(NC2CCN(Cc3ccc4c(cc(C#N)n4C[C@H](C)N4CCC(S(C)(=O)=O)CC4)c3C)CC2)c2cc(CC(F)(F)F)sc2n1` [Compound I-165] and `CNS(=O)(=O)C1CCN([C@@H](C)Cn2c(C#N)cc3c(C)c(CN4CCC(Nc5nc(OC)nc6sc(CC(F)(F)F)cc56)CC4)ccc32)CC1` [Compound I-214] cannot be ordered by GI50: < 10 nM for the first, < 10 nM for the second.

First: CCc1nc(NC2CCN(Cc3ccc4c(cc(C#N)n4C[C@H](C)N4CCN(S(C)(=O)=O)CC4)c3C)CC2)c2cc(CC(F)(F)F)sc2n1 [Compound I-171]
Second: COc1nc(NC2CCN(Cc3ccc4c(cc(C#N)n4C[C@H](C)N4CCN(S(C)(=O)=O)CC4)c3C)CC2)c2cc(CC(F)(F)F)sc2n1 [Compound I-183]
The GI50 of the first is higher: 10 to 50 nM for the first, < 10 nM for the second.

`C[C@@H](Cn1c(C#N)cc2cc(CN3CCC(Nc4nc(N)nc5sc(CC(F)(F)F)cc45)CC3)c(O)cc21)N1CCN(S(C)(=O)=O)CC1` [Compound I-172] and `CNS(=O)(=O)N1CCN([C@@H](C)Cn2c(C#N)cc3cc(CN4CCC(Nc5nc(N)nc6sc(CC(F)(F)F)cc56)CC4)c(O)cc32)CC1` [Compound I-177] cannot be ordered by GI50: < 10 nM for the first, < 10 nM for the second.

`Cc1c(CN2CCC(Nc3nc(N)nc4sc(CC(F)(F)F)cc34)CC2)ccc2c1cc(C#N)n2C[C@H](C)N1CCN(CC(N)=O)CC1` [Compound I-175] and `CNC(=O)CN1CCN([C@@H](C)Cn2c(C#N)cc3c(C)c(CN4CCC(Nc5nc(N)nc6sc(CC(F)(F)F)cc56)CC4)ccc32)CC1` [Compound I-176] fall in the same range of GI50: 10 to 50 nM for the first, 10 to 50 nM for the second.

First: Cc1c(CN2CCC(Nc3nc(N)nc4sc(CC(F)(F)F)cc34)CC2)ccc2c1cc(C#N)n2C[C@H](C)N1CCN(CC(=O)N(C)C)CC1 [Compound I-181]
Second: CNS(=O)(=O)N1CCN([C@@H](C)Cn2c(C#N)cc3c(C)c(CN4CCC(Nc5nc(OC)nc6sc(CC(F)(F)F)cc56)CC4)ccc32)CC1 [Compound I-205]
The GI50 of the first is higher: 10 to 50 nM for the first, < 10 nM for the second.

`CNc1nc(NC2CCN(Cc3ccc4c(cc(C#N)n4C[C@H](C)N4CCC(C)(C#N)CC4)c3C)CC2)c2cc(CC(F)(F)F)sc2n1` [Compound I-199] and `CNc1nc(NC2CCN(Cc3ccc4c(cc(C#N)n4C[C@H](C)N4CCC(C)(O)CC4)c3C)CC2)c2cc(CC(F)(F)F)sc2n1` [Compound I-207] cannot be ordered by GI50: < 10 nM for the first, < 10 nM for the second.

Compared with `CNc1nc(NC2CCN(Cc3ccc4c(cc(C#N)n4C[C@H](C)N4CCS(=O)(=O)CC4)c3C)CC2)c2cc(CC(F)(F)F)sc2n1` [Compound I-203], `CNC(=O)C1CN([C@@H](C)Cn2c(C#N)cc3c(C)c(CN4CCC(Nc5nc(NC)nc6sc(CC(F)(F)F)cc56)CC4)ccc32)CCO1` (stereo partly shown) [Compound I-217] is higher in GI50: < 10 nM for the first, 10 to 50 nM for the second.

These compounds were tested against T1, menin-MLL interaction (Homo sapiens, UniProt O00255) (assay: Fluorescence polarization (FP) competition assay). Details: read-out: Menin MLL 4-43 IC50.
T1 sequence (O00255 1-610): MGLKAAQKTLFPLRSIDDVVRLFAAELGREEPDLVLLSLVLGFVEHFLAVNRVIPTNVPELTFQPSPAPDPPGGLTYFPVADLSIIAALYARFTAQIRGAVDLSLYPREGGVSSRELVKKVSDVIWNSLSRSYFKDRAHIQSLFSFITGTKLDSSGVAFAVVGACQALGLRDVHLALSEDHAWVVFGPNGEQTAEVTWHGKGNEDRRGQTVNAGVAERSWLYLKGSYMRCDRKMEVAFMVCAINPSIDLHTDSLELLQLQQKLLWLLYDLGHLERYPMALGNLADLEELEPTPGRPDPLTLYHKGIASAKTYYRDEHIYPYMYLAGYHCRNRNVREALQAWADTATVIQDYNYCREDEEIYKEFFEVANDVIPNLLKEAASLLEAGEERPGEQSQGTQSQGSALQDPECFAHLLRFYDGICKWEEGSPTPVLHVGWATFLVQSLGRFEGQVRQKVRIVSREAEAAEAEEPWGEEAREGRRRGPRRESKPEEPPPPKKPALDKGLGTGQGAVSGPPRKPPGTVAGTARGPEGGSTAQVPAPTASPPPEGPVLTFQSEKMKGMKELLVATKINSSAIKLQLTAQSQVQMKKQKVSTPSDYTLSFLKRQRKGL
Type: binding

In the case of `Cc1c(CN2CCC(Nc3ncnc4sc(CC(F)(F)F)cc34)CC2)ccc2c1cc(C#N)n2CCN1CCC2(CC1)CCN(S(C)(=O)=O)C2` [Compound I-52], the IC50 is reported as 250 to 1000 nM.
